# Reference: publication PMC6624297 (Cell Death & Disease, 2019)
# Experiments:
# SGC7901 cells = test: MTT assay SGC7901; assay type: cell-based; details: Homo sapiens, SGC-7901, 24h of treatment, mean ± SD
# Description: (§1) Details are given in Supplementary Materials and Methods. Using probability unit and weighted regression method to calculate the IC50 value of compounds.
# (§2) Total cells in the logarithmic growth phase were collected, digested using 0.25% pancreatic enzymes, and then diluted into single-cell suspensions using phosphate-buffered solution (PBS). These cells were seeded into 96-well plates at 4× 10^3-5× 10^3 cells per well (100 µL per well) and then A549, H460, OVCAR-3, SGC7901, MDA-MB-231, HCT116 and HepG2 were cultured at 37°Cin an incubator containing 5% CO2. After cell complete attachment, 100 µL of different concentrations of compounds (0.625 μM, 1.25 μM, 2.5μM, 5 μM, 10 μM) were added to the cells after the nutrient solution in each well was discarded, while no compound except 0.1% DMSO was added to cells in the control group; at the same time, each concentration was set up to 5 wells. In addition, 5 wells in each 96-well plate only received 100 µL of nutrient solution as a blank control. The plates were taken out after the cells were incubated with compounds for 24 h, and 20 µL of MTT solution (5 mg/mL) (Wuhan Boster Biotechnology Limited Company, Wuhan, China; item No. AR1156) was added into all the wells. After another time of incubation for 4 h at 37 °C, the nutrient solution in each well was discarded slowly, and 150 µL of DMSO was added to each well. The plates were shaken on a shaking table for 20 min. When the crystals were fully dissolved, the blank wells were used to zero the plate reader. The optical density (OD) of each well was detected at 490 nm. The IC50 value was determined as the concentration of the inhibitor that caused 50% inhibition. Using probability unit and weighted regression method to calculate the IC50 value of compounds.
# FVB mice = test: Toxicity test in FVB mice; assay type: in vivo; details: mice, 3 weeks
# Description: Blood was collected from euthanized mice under isoflurane-induced deep anesthesia by cardiac puncture. After allowing blood coagulation at 4 °C, serum was collected by centrifugation at 3000 rpm for 10 min at 4 °C. Analysis of the level of ALT, AST, Glu and CRE in the serum was performed using a veterinary hematology analyzer (Fuji DRI-Chem 3500 s, Fujifilm, Tokyo, Japan) according to the manufacturer’s provided protocols. The histopathological changes in liver, lung, brain, and kidney were evaluated by using HE-stained section of the tissues (This part of the results is in the supplementary document).
# Tissues were fixed in 10% neutral-buffered formalin for 24 h, embedded in paraffin, cut into 4-μm-thick sections, deparaffinized with xylene and processed with a graded ethanol series. Next, the sections were stained with HE and were observed using Eclipse Ts2 microscope (Nikon).
# MDA-MB-231 cells = test: MTT assay MDA-MB-231; assay type: cell-based; details: Homo sapiens, 24h of treatment, mean ± SD
# Description: as §1, §2
# HCT-116 cells = test: MTT assay HCT-116; assay type: cell-based; details: Homo sapiens, 24h of treatment, mean ± SD
# Description: as §1, §2
# OVCAR-3 cells = test: MTT assay OVCAR-3; assay type: cell-based; details: Homo sapiens, 24h of treatment, mean ± SD
# Description: as §1, §2
# A549 cells [1] = test: MTT assay A549; assay type: cell-based, human; details: Homo sapiens, A549, 24h of treatment, mean ± SD
# Description: as §1, §2
# SK-MES-1 cells = test: MTT assay SK-MES-1; assay type: cell-based
# human TS (hTS) = molecular target: T1, human TS (hTS) (Homo sapiens, UniProt P04818); test: Thymidylate synthase (TS) spectrophotometric assay; assay type: biochemical; details: averages from triplicate assays
# T1 construct: purchased ProSpec-Tany
# T1 sequence (P04818 whole entry): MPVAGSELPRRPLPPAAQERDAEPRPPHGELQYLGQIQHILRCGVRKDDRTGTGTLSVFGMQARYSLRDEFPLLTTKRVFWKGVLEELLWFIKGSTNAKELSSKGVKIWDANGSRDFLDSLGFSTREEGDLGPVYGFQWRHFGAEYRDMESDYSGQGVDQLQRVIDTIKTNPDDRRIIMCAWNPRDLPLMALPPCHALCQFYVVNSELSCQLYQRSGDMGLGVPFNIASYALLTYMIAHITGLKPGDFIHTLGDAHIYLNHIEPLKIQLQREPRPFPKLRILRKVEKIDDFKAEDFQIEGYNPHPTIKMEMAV
# Description: Recombinant human thymidylate synthase purchased from ProSpec-Tany Company. TS was assayed spectrophotometrically at 30 °C and pH 7.4 in a mixture containing 0.1 M 2-mercaptoethanol, 0.0003 M (6R,S)-tetrahydrofolate, 0.012 M formaldehyde, 0.02 M MgCl2, 0.001 M dUMP, 0.04 M Tris–HCl, 30 nM hTS, and 0.00075 M NaEDTA. […] The reaction was initiated by the addition of an amount of enzyme yielding a change in absorbance at 340 nm of 0.016/min in the absence of inhibitor.
# BRaf kinase = BRaf kinase (Homo sapiens, UniProt P15056); test: ADP-Glo kinase assay, BRaf; assay type: biochemical; details: averages from triplicate assays
# BRaf kinase, sequence (P15056 whole entry): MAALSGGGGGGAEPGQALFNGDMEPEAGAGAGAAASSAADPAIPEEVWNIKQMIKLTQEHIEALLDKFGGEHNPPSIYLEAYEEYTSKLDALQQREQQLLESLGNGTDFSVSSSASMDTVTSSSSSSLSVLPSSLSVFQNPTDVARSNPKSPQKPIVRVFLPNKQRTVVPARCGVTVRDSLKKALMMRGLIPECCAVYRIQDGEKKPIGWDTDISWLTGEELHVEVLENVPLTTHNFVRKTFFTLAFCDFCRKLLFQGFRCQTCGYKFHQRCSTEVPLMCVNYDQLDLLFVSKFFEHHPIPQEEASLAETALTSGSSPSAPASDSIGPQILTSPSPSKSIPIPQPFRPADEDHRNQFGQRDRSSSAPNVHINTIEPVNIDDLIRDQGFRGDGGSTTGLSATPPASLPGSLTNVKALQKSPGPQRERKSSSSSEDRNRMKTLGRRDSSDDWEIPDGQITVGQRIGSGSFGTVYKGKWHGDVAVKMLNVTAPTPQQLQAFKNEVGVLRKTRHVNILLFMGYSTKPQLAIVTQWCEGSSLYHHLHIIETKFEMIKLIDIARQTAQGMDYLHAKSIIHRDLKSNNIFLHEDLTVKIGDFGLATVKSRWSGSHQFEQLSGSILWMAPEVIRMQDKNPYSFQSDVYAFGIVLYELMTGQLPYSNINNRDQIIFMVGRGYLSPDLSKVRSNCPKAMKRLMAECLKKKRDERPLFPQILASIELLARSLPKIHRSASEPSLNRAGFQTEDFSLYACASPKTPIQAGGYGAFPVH
# Description: (§3) The ADP-Glo™ kinase assay (Promega, Madison, WI) was used to screen target compounds for their inhibition effects for BRaf, EGFR kinase. The kinase assay was carried out in a 96-well plate, in a volume of 25 μL HEPES (pH 7.3) solvent containing 1.6 μg/mL EGF, and 20 ng of EGFR kinase, or 50 ng BRaf kinase, and 10 μM ATP (Promega, Madison, WI). […] Reactions in each well were started immediately by adding ATP and kept going for half an hour under 30 °C in a constant temperature incubator (Bluepard, Shanghai, China). After the plate cooled for 5 min at room temperature, 25 μl of ADP-Glo reagent was added into each well to stop the reaction and consume the remaining […] within 40 min. At the end, 50 μl of kinase detection reagent was added into the well and incubated for 1 h to produce a luminescence signal.
# EGFR kinase = EGFR kinase (Homo sapiens, UniProt P00533); test: ADP-Glo kinase assay, EGFR; assay type: biochemical; details: averages from triplicate assays
# EGFR kinase, sequence (P00533 25-1210): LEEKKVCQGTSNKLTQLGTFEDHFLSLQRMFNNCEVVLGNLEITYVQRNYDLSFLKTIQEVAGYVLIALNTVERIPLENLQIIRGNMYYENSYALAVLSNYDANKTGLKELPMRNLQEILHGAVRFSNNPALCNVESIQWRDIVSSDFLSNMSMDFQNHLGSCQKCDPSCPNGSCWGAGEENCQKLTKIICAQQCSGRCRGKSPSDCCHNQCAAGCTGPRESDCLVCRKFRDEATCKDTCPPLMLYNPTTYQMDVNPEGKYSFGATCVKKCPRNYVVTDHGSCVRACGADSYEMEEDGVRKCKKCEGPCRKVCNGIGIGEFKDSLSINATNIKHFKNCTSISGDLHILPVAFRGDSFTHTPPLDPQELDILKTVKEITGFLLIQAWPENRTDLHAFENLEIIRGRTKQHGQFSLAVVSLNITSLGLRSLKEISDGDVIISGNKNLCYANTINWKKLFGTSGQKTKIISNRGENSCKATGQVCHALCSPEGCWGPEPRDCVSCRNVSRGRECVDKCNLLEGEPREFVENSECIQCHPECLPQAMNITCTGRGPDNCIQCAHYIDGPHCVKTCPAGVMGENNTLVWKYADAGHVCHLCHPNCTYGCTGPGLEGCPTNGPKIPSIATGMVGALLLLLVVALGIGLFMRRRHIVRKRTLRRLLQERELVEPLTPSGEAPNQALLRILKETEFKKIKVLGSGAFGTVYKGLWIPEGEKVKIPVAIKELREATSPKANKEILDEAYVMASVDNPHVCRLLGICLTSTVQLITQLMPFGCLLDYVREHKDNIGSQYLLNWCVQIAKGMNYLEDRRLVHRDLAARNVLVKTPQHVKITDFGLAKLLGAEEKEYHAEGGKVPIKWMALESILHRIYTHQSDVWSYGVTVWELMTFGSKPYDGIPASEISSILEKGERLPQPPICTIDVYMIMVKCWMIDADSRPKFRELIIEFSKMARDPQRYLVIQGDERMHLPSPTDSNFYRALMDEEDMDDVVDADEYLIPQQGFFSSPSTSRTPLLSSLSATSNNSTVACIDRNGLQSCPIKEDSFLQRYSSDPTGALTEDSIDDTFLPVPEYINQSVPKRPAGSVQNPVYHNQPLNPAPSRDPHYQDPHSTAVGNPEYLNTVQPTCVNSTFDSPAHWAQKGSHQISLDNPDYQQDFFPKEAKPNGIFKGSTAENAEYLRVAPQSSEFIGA
# Description: as §3
# HepG2 cells = test: MTT assay HepG2; assay type: cell-based; details: Homo sapiens, 24h of treatment, mean ± SD
# Description: as §1, §2
# LO2 cell line = test: Selectivity index against LO2; assay type: cell-based; details: SI = CC50/IC50
# GES-1 cell line = test: Selectivity index against GES-1; assay type: cell-based; details: SI = CC50/IC50
# IOSE80 cell line = test: Selectivity index against IOSE80; assay type: cell-based; details: SI = CC50/IC50
# A549 cells [2] = test: Transwell migration and wound healing, A549; assay type: cell-based, human; details: at high doses
# Description: Cell migration ability was measured using transwell chambers (8-μm pore size; Corning Costar, Cambridge, MA, USA). For the transwell assay, A549 and H460 cells suspended in serum-free RPMI-1640 medium containing different concentrations of L14e (0, 0.5, 1.0, and 1.5 μM) were seeded into the upper chamber. The lower chamber contained RPMI-1640 medium supplemented with 20% serum. After 24 h incubation, the filters were fixed in methanol and stained with 0.1% crystal violet. The upper faces of the filters were gently abraded, and the lower faces with cells migrated across the filters were imaged and counted under the microscope. For wound healing assays, cells were placed into 6-well plates and cultured until 100% confluence. An artificial scratch was created using a 200 μL pipette tip. Add serum-free RPMI-1640 medium containing different concentrations of drugs. At 24 h after culturing in serum-free medium, wound closure images were captured in the same field under magnification. Cell healing rates were calculated by the fraction of cell coverage across the line. These experiments were performed in triplicate and repeated three times.
# HTB-125 cell line = test: Selectivity index against HTB-125; assay type: cell-based; details: SI = CC50/IC50
# HCoEpiC cell line = test: Selectivity index against HCoEpiC; assay type: cell-based; details: SI = CC50/IC50
# HPAEpiC cell line = test: Selectivity index against HPAEpiC; assay type: cell-based; details: SI = CC50/IC50
Compound,IC50 (SGC7901 cells),"histopathological changes in liver, lung, brain, and kidney (HE staining) (FVB mice)",IC50 (MDA-MB-231 cells),IC50 (HCT-116 cells),IC50 (OVCAR-3 cells),IC50 (A549 cells [1]),inhibition of SK-MES-1 cells (SK-MES-1 cells),IC50 (human TS (hTS)),IC50 (BRaf kinase),IC50 (EGFR kinase),IC50 (HepG2 cells),melting point,SI (Selectivity index) LO2 (LO2 cell line),SI (Selectivity index) GES-1 (GES-1 cell line),SI (Selectivity index) IOSE80 (IOSE80 cell line),inhibition of A549 cells migration (A549 cells [2]),SI (Selectivity index) HTB-125 (HTB-125 cell line),SI (Selectivity index) HCoEpiC (HCoEpiC cell line),SI (Selectivity index) HPAEpiC (HPAEpiC cell line)
"Nc1nc2[nH]cc(CCc3ccc(C(=O)N[C@@H](CCC(=O)O)C(=O)O)cc3)c2c(=O)[nH]1 [PTX, pemetrexed, reference compound]",6.96 ± 0.43 µM,no visible pathological changes,4.18 ± 0.14 µM,4.64 ± 0.22 µM,7.35 ± 0.6 µM,3.29 ± 0.15 µM,did not inhibit,,,,,,,,,,,,
"Cc1ccc(NC(=O)Nc2ccc(NS(=O)(=O)c3c[nH]c(=O)[nH]c3=O)cc2)cc1 [Compound L13i, N'-(4-methylphenyl)-4-(2,4-dihydroxypyrimidine-5-sulfonamido) phenyl urea]",4.92 ± 0.23 µM,,> 10 µM,7.98 ± 0.61 µM,> 10 µM,3.48 ± 0.13 µM,,7.39 µM,4.91 µM,5.48 µM,8.25 ± 0.25 µM,181 to 183 °C,,,,,,,
"O=C(NNC(=O)c1ccccc1NS(=O)(=O)c1c[nH]c(=O)[nH]c1=O)c1cccc(Cl)c1 [Compound 10l, reference compound]",1.82 ± 0.08 µM,,2.04 ± 0.37 µM,2.27 ± 0.23 µM,2.08 ± 0.12 µM,1.26 ± 0.16 µM,did not inhibit,1.36 µM,1.67 µM,2.71 µM,7.66 ± 0.77 µM,,12.57,14.25,11.90,could inhibit A549 cells migration at high doses,5.26,4.09,16.56
"O=C(Nc1cccc(Cl)c1)Nc1cccc(NS(=O)(=O)c2c[nH]c(=O)[nH]c2=O)c1 [Compound L15e, N'-(3-chlorophenyl)-3-(2,4-dihydroxypyrimidine-5-sulfonamido)phenylurea]",2.58 ± 0.43 µM,,3.13 ± 0.09 µM,3.3 ± 0.07 µM,1.19 ± 0.49 µM,0.87 ± 0.28 µM,,2.17 µM,2.96 µM,4.37 µM,2.29 ± 0.29 µM,162 to 166 °C,,,,,,,
"O=C(Nc1ccccc1Cl)Nc1ccccc1NS(=O)(=O)c1c[nH]c(=O)[nH]c1=O [Compound L14d, N'-(2-chlorophenyl)-2-(2,4-dihydroxypyrimidine-5-sulfonamido)phenyl urea]",5.22 ± 0.18 µM,,6.71 ± 0.18 µM,4.96 ± 0.63 µM,7.27 ± 1.23 µM,3.29 ± 0.3 µM,,1.91 µM,1.62 µM,2.39 µM,2.2 ± 0.06 µM,151 to 153 °C,,,,,,,
"O=C(Nc1ccc(Cl)cc1)Nc1ccccc1NS(=O)(=O)c1c[nH]c(=O)[nH]c1=O [Compound L14f, N'-(4-chlorophenyl)-2-(2,4-dihydroxypyrimidine-5-sulfonamido)phenyl urea]",3.98 ± 0.33 µM,,4.54 ± 0.41 µM,4.22 ± 0.31 µM,6.52 ± 0.5 µM,1.38 ± 0.27 µM,,2.12 µM,1.71 µM,2.23 µM,1.62 ± 0.1 µM,160 to 163 °C,,,,,,,
"O=C(Nc1ccc(Cl)cc1)Nc1ccc(NS(=O)(=O)c2c[nH]c(=O)[nH]c2=O)cc1 [Compound L13f, N'-(4-chlorophenyl)-4-(2,4-dihydroxypyrimidine-5-sulfonamido)phenylurea]",3.98 ± 0.05 µM,,8.89 ± 2.42 µM,5.53 ± 0.25 µM,8.04 ± 0.32 µM,0.99 ± 0.07 µM,,6.3 µM,3.59 µM,4.65 µM,4.35 ± 0.45 µM,175 to 177 °C,,,,,,,
"Cc1cccc(NC(=O)Nc2cccc(NS(=O)(=O)c3c[nH]c(=O)[nH]c3=O)c2)c1 [Compound L15h, N'-(3-methylphenyl)-3-(2,4-dihydroxypyrimidine-5-sulfonamido)phenyl urea]",4.78 ± 0.62 µM,,6.41 ± 0.41 µM,6.15 ± 0.53 µM,5.98 ± 0.6 µM,1.46 ± 0.5 µM,,7.16 µM,6.38 µM,7.1 µM,5.97 ± 0.21 µM,165 to 169 °C,,,,,,,
